Counter-ions that a name gives are not always drawn.

The test system of data set [1] is TCC97-7 bladder cancer cells carrying the Ser249Cys mutation of FGF-R3. As to the kind of experiment: Reduction of intracellular ATP content of TCC97-7 cells in serum-supplemented medium (Cell Titer-Glo). In kind it is cell-based. Particulars: 72 h, TCC97-7 cells cultured in the presence of serum, after 3 days, read-out: Inhibition of the amount of intracellular ATP (%). Here is the method: Evaluation of the Capacity of FGF-R Antagonists to Reduce the ATP Content of TCC97-7 Bladder Cancer Cells Carrying the Ser249Cys Mutation of FGF-R3, Cultured in a Serum-Supplemented Medium
To do this, 3000 cells are seeded in 50 μl of complete medium (Ham-F/12, 1% FCS, 2 mM glutamine, non-essential amino acids, sodium pyruvate, 1% insulin/transferrin/selenium, hydrocortisone). 16 hours later, 50 μl of the various compounds are added at 2 and 20 μM after dilution in complete culture medium in order to obtain final concentrations of 1 and 10 μM. After 3 days, the ATP content of the cells is measured using the Cell Titer-Glo® Luminescent Cell Viability Assay kit (Promega, France) according to the supplier's recommendations. The percentage inhibition of the amount of intracellular ATP is calculated by considering the ATP content of the cells cultured in the absence of antagonist to be 0% inhibition. 100% inhibition would correspond to a well in which the ATP content is zero.
Thus, compounds 1 to 24 are capable of inhibiting the amount of intracellular ATP in TCC97-7 cells by more than 20% at the dose of 1 or 10 μM (Table No. 3).
For orientation: Cellular ATP, detected with luciferase, serves as a proxy for viable cell number.

For data set [2], the system named is bladder cancer tumour cells of TCC97-7 type carrying the Ser249Cys mutation of FGF receptor 3. As to the kind of experiment: Inhibition of serum-induced proliferation of TCC97-7 bladder cancer cells (cell-covered surface area, Incucyte). In kind it is cell-based. Particulars: 72 h, TCC97-7 cell line in the presence of serum, after 3 days. Here is the method: Evaluation of the Capacity of the FGF-R Antagonists to Inhibit Serum-Induced Proliferation of Bladder Cancer Tumour Cells of TCC97-7 Type Carrying the Ser249Cys Mutation of FGF Receptor 3
To do this, 2000 cells are seeded in the morning in 50 μl of complete medium (Ham-F/12, 1% FCS, 2 mM glutamine, non-essential amino acids, sodium pyruvate, 1% insulin/transferrin/selenium, hydrocortisone). In the evening, 50 μl of the various compounds are added at 2 or 20 μM after dilution in complete culture medium in order to obtain final concentrations of 1 or 10 μM. After 3 days, cell proliferation is evaluated by measuring the cell-covered surface area of a well of a 96 well plate. This surface area is measured using an Incucyte apparatus (Essen BioScience). The percentage inhibition of the cell proliferation is calculated by considering the surface area occupied by the TCC97-7 cells cultured in the absence of FGF-R antagonists to be 0% inhibition. 100% inhibition would correspond to a well no longer containing cells.
Thus, compounds 1 to 24 are capable of inhibiting TCC97-7 cell proliferation by more than 20% at the dose of 1 or 10 μM. (Table No. 2).

As a reminder, the inhibition is the drop in the measured response relative to a control, in per cent. As to `CNC(=O)c1cccc(-c2cc(C(F)(F)F)c3c(-c4ccccc4)n[nH]c3n2)c1` [compound 17, N-Methyl-3-(3-phenyl-4-trifluoromethyl-1H-pyrazolo[3,4-b]pyridin-6-yl)benzamide hydrochloride], in data set [1], the inhibition at 1 µM is 13% and the inhibition at 10 µM is 69%.

As for `FC(F)(F)c1cc(-c2ccc(N3CCOCC3)cc2)nc2[nH]nc(-c3ccccc3)c12` [compound 24, 6-(4-Morpholin-4-ylphenyl)-3-phenyl-4-trifluoromethyl-1H-pyrazolo[3,4-b]pyridine hydrochloride], in data set [1], the inhibition at 1 µM was 6% and the inhibition at 10 µM came to 27%.

Regarding `CN(C)c1ccc(-c2cc(C(F)(F)F)c3c(-c4ccccc4)n[nH]c3n2)cc1` [compound 19, Dimethyl-[4-(3-phenyl-4-trifluoromethyl-1H-pyrazolo[3,4-b]pyridin-6-yl)phenyl]amine], in data set [1], the inhibition at 1 µM was found to be 30% and the inhibition at 10 µM is 63%.

The term melting point denotes the temperature, or range, at which the solid turns liquid. Compound `N#Cc1cc(-c2cc(C(F)F)c3c(-c4ccccc4)n[nH]c3n2)ccc1N` (as salt: hydrochloride) [compound 22, 2-Amino-5-(4-difluoromethyl-3-phenyl-1H-pyrazolo[3,4-b]pyridin-6-yl)benzonitrile hydrochloride] had a melting point of 282 °C.

Consider `N#Cc1cc(-c2cc(C(F)(F)F)c3c(-c4ccccc4)n[nH]c3n2)ccc1F` [compound 20, 2-Fluoro-5-(3-phenyl-4-trifluoromethyl-1H-pyrazolo[3,4-b]pyridin-6-yl)benzonitrile], for which, in data set [1], the inhibition at 1 µM was found to be 11% and the inhibition at 10 µM is 26%.

Turning to `FC(F)c1cc(-c2cccc(N3CCCCC3)c2)nc2[nH]nc(-c3ccccc3)c12` [compound 7, 4-Difluoromethyl-3-phenyl-6-(3-piperidin-1-ylphenyl)-1H-pyrazolo[3,4-b]pyridine hydrochloride], the inhibition at 1 µM in data set [1] was 20.4%; in data set [2], -50.3%. Moreover, the values for the inhibition at 10 µM in data set [1] and in data set [2] were 78% and 52.2%, respectively.

Regarding `O=C(c1cccc(-c2cc(C(F)F)c3c(-c4ccccc4)n[nH]c3n2)c1)N1CCCC1` [compound 6, [3-(4-Difluoromethyl-3-phenyl-1H-pyrazolo[3,4-b]pyridin-6-yl)phenyl]pyrrolidin-1-ylmethanone hydrochloride], the inhibition at 1 µM worked out at 26.9% in data set [1] and 16.2% in data set [2]. The results for the inhibition at 10 µM in data set [1] and in data set [2] were 90.5% and 83.9%, respectively.

As for `CS(=O)(=O)Nc1cccc(-c2cc(C(F)(F)F)c3c(-c4ccccc4)n[nH]c3n2)c1` [compound 13, N-[3-(3-Phenyl-4-trifluoromethyl-1H-pyrazolo[3,4-b]pyridin-6-yl)phenyl]methanesulphonamide hydrochloride], the inhibition at 1 µM in data set [1] came to 56%; in data set [2] it was 0%. In addition, the results for the inhibition at 10 µM in data set [1] and in data set [2] were 63% and 57%, respectively.

On to `Cn1nc(-c2ccccc2)c2c(C(F)(F)F)cc(-c3cccc(C(N)=O)c3)nc21` [compound 1, 3-(1-methyl-3-phenyl-4-trifluoromethyl-1H-pyrazolo[3,4-b]pyridin-6-yl)benzamide], for which, in data set [1], the inhibition at 1 µM turned out to be 10.9% and the inhibition at 10 µM came out at 41.1%. Further, in data set [2], the inhibition at 1 µM came out at 8% and the inhibition at 10 µM is 91.6%.

Regarding `CN(C)C(=O)c1cccc(-c2cc(C(F)(F)F)c3c(-c4ccccc4)nn(C)c3n2)c1` [compound 4, N,N-Dimethyl-3-(1-methyl-3-phenyl-4-trifluoromethyl-1H-pyrazolo[3,4-b]pyridin-6-yl)benzamide], in data set [1], the inhibition at 1 µM stood at 23.7% and the inhibition at 10 µM was 49.6%. In data set [2], the inhibition at 1 µM was determined as 5% and the inhibition at 10 µM turned out to be 64.4%.

For `CN(C)CCn1nc(-c2ccccc2)c2c(C(F)F)cc(-c3ccc(N)c(C#N)c3)nc21` [compound 14, 2-Amino-5-[4-difluoromethyl-1-(2-dimethylaminoethyl)-3-phenyl-1H-pyrazolo[3,4-b]pyridin-6-yl]benzonitrile], in data set [1], the inhibition at 1 µM was 32% and the inhibition at 10 µM is 77%.

In the case of `Cn1nc(-c2ccccc2)c2c(C(F)(F)F)cc(-c3cccc(NS(C)(=O)=O)c3)nc21` [compound 21, N-[3-(1-Methyl-3-phenyl-4-trifluoromethyl-1H-pyrazolo[3,4-b]pyridin-6-yl)phenyl]methanesulphonamide], in data set [1], the inhibition at 1 µM was -1% and the inhibition at 10 µM was 25%. Besides, in data set [2], the inhibition at 1 µM is -3% and the inhibition at 10 µM turned out to be 61%.

For `CN(C)CCn1nc(-c2ccccc2)c2c(C(F)(F)F)cc(-c3ccc(N)c(C#N)c3)nc21` [compound 8, 2-Amino-5-[1-(2-dimethylamino-ethyl)-3-phenyl-4-trifluoromethyl-1H-pyrazolo[3,4-b]pyridin-6-yl]benzonitrile], the inhibition at 1 µM was found to be 27.7% in data set [1] and 10.8% in data set [2]. Further, the figures for the inhibition at 10 µM in data set [1] and in data set [2] were 97.8% and 95.2%, respectively.

`Cn1nc(-c2ccccc2)c2c(C(F)(F)F)cc(-c3ccc(C(=O)O)cc3)nc21` [compound 23, 4-(1-Methyl-3-phenyl-4-trifluoromethyl-1H-pyrazolo[3,4-b]pyridin-6-yl)benzoic acid]: the inhibition at 1 µM was 17% in data set [1] and 8% in data set [2]. Also, the values for the inhibition at 10 µM in data set [1] and in data set [2] were 40% and 33%, respectively.

As for `O=C(c1ccc(-c2cc(C(F)F)c3c(-c4ccccc4)n[nH]c3n2)cc1)N1CCCC1` [compound 5, [4-(4-Difluoromethyl-3-phenyl-1H-pyrazolo[3,4-b]pyridin-6-yl)phenyl]pyrrolidin-1-ylmethanone hydrochloride], in data set [1], the inhibition at 1 µM stood at 37.1% and the inhibition at 10 µM came to 40.8%. Also, in data set [2], the inhibition at 1 µM came to 45.7% and the inhibition at 10 µM worked out at 19.5%.

Turning to `N#Cc1cc(-c2cc(C(F)(F)F)c3c(-c4ccccc4)nn(CCN4CCCCC4)c3n2)ccc1N` [compound 10, 2-Amino-5-[3-phenyl-1-(2-piperidin-1-ylethyl)-4-trifluoromethyl-1H-pyrazolo[3,4-b]pyridin-6-yl]benzonitrile], in data set [1], the inhibition at 1 µM was found to be 11% and the inhibition at 10 µM was 94.4%. Moreover, in data set [2], the inhibition at 1 µM is 22.8% and the inhibition at 10 µM came to 85.9%.

In the case of `N#Cc1cc(-c2cc(C(F)F)c3c(-c4ccccc4)n[nH]c3n2)ccc1N` [compound 22, 2-Amino-5-(4-difluoromethyl-3-phenyl-1H-pyrazolo[3,4-b]pyridin-6-yl)benzonitrile hydrochloride], in data set [1], the inhibition at 1 µM worked out at 27% and the inhibition at 10 µM is 53%.

In turn, `O=C(c1ccc(-c2cc(C(F)F)c3c(-c4ccccc4)n[nH]c3n2)cc1)N1CCCC1` (as salt: hydrochloride) [compound 5, [4-(4-Difluoromethyl-3-phenyl-1H-pyrazolo[3,4-b]pyridin-6-yl)phenyl]pyrrolidin-1-ylmethanone hydrochloride] came in with a melting point of 248 °C.

For `CNC(=O)c1cc(-c2cc(C(F)(F)F)c3c(-c4ccccc4)nn(C)c3n2)ccc1F` [compound 2, 2-Fluoro-N-methyl-5-(1-methyl-3-phenyl-4-trifluoromethyl-1H-pyrazolo[3,4-b]pyridin-6-yl)benzamide], the inhibition at 1 µM in data set [1] stood at 17.9%; in data set [2], 4%. Further, the figures for the inhibition at 10 µM in data set [1] and in data set [2] were 35.9% and 53.2%, respectively.

The values are drawn from patent publication US9572799B2, “Pyrazolopyridine derivatives for use in the treatment of bladder cancer” (SANOFI, priority 2013, dated 2017).
